{"source": "patent US9670227B2", "about": "“Thienopyrimidine derivatives, a process for their preparation and pharmaceutical compositions containing them” (LES LABORATOIRES SERVIER, priority 2013, dated 2017)", "key": {"[1]": {"tested_on": "H929 multiple myeloma tumour line", "assay": "In vitro cytotoxicity, Microculture Tetrazolium Assay", "type": "cell-based", "details": "Homo sapiens, NCI-H929, 48 h, H929 cells, 48 hours exposure, MTT; read-out: IC50 (μM) MTT H929", "method": "The cytotoxicity studies were carried out on the H929 multiple myeloma tumour line.\nThe cells are distributed onto microplates and exposed to the test compounds for 48 hours."}, "Mcl-1 protein": {"target": "Mcl-1 protein (UniProtKB primary accession number: Q07820) (Homo sapiens, UniProt Q07820)", "sequence (Q07820 whole entry)": "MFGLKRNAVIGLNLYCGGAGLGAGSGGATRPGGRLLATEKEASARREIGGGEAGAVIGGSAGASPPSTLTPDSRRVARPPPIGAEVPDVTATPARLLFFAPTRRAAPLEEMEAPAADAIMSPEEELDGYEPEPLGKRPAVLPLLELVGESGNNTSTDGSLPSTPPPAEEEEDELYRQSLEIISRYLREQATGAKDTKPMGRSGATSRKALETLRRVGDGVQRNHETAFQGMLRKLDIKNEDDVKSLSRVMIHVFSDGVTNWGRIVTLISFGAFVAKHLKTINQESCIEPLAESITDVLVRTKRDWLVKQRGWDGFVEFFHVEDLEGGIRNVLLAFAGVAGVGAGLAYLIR", "assay": "Inhibition of Mcl-1 by fluorescence polarisation, Method 1", "type": "binding", "details": "fluorescence polarisation test; Method 2 values are underlined in the patent (underlining not visible here); read-out: IC50 (M) Mcl-1 FP", "summary_of_the_method": "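An 11-point DMSO dilution of compound is mixed with buffer (10 mM HEPES, 150 mM NaCl, 0.05% Tween 20, pH 7.4) carrying 1 nM fluorescein-labelled ligand and 5 nM Mcl-1, final concentrations. Displacement is monitored by fluorescence polarisation.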"}}}
{"smiles": "Cc1c(-c2c(-c3ccco3)sc3ncnc(OC(Cc4ccccc4OCc4ccnc(OCc5ccccc5)n4)C(=O)O)c23)ccc(OCCN2CCN(C)CC2)c1Cl", "note": "[Example 257, (2R)-3-(2-{[2-(benzyloxy)pyrimidin-4-yl]methoxy}phenyl)-2-{[(5Sa)-5-{3-chloro-2-methyl-4-[2-(4-methylpiperazin-1-yl)ethoxy]phenyl}-6-(furan-2-yl)thieno[2,3-d]pyrimidin-4-yl]oxy}propanoic acid]", "values": [{"measurement": "IC50", "setting": "[1]", "result": 0.019, "unit": "µM"}, {"measurement": "IC50", "setting": "Mcl-1 protein", "result": "5e-09", "unit": "M"}]}
{"smiles": "Cc1c(-c2c(-c3ccco3)sc3ncnc(OC(Cc4ccccc4OCc4ccncc4)C(=O)O)c23)ccc(OCCN2CCN(C)CC2)c1Cl", "note": "[Example 258, (2R)-2-{[(5Sa)-5-{3-chloro-2-methyl-4-[2-(4-methylpiperazin-1-yl)ethoxy]phenyl}-6-(furan-2-yl)thieno[2,3-d]pyrimidin-4-yl]oxy}-3-[2-(pyridin-4-ylmethoxy)phenyl]propanoic acid]", "values": [{"measurement": "IC50", "setting": "[1]", "result": 0.069, "unit": "µM"}, {"measurement": "IC50", "setting": "Mcl-1 protein", "result": "6.6e-09", "unit": "M"}]}
{"smiles": "Cc1c(-c2c(-c3ccco3)sc3ncnc(OC(Cc4ccccc4OCc4ccncn4)C(=O)O)c23)ccc(OCCN2CCN(C)CC2)c1Cl", "note": "[Example 259, (2R)-2-{[(5Sa)-5-{3-chloro-2-methyl-4-[2-(4-methylpiperazin-1-yl)ethoxy]phenyl}-6-(furan-2-yl)thieno[2,3-d]pyrimidin-4-yl]oxy}-3-[2-(pyrimidin-4-ylmethoxy)phenyl]propanoic acid]", "values": [{"measurement": "IC50", "setting": "[1]", "result": 0.07, "unit": "µM"}, {"measurement": "IC50", "setting": "Mcl-1 protein", "result": "5.2e-09", "unit": "M"}]}
{"smiles": "Cc1c(-c2c(-c3ccco3)sc3ncnc(OC(Cc4ccccc4OCc4ccnn4C)C(=O)O)c23)ccc(OCCN2CCN(C)CC2)c1Cl", "note": "[Example 260, (2R)-2-{[(5Sa)-5-{3-chloro-2-methyl-4-[2-(4-methylpiperazin-1-yl)ethoxy]phenyl}-6-(furan-2-yl)thieno[2,3-d]pyrimidin-4-yl]oxy}-3-{2-[(1-methyl-1H-pyrazol-5-yl)methoxy]phenyl}propanoic acid]", "values": [{"measurement": "IC50", "setting": "[1]", "result": 0.033, "unit": "µM"}, {"measurement": "IC50", "setting": "Mcl-1 protein", "result": "6.7e-09", "unit": "M"}]}
{"smiles": "Cc1c(-c2c(-c3ccco3)sc3ncnc(OC(Cc4ccccc4OCc4ccnn4C(C)C)C(=O)O)c23)ccc(OCCN2CCN(C)CC2)c1Cl", "note": "[Example 261, (2R)-2-{[(5Sa)-5-{3-chloro-2-methyl-4-[2-(4-methylpiperazin-1-yl)ethoxy]phenyl}-6-(furan-2-yl)thieno[2,3-d]pyrimidin-4-yl]oxy}-3-(2-{[1-(propan-2-yl)-1H-pyrazol-5-yl]methoxy}phenyl)propanoic acid]", "values": [{"measurement": "IC50", "setting": "[1]", "result": 0.018, "unit": "µM"}, {"measurement": "IC50", "setting": "Mcl-1 protein", "result": "1.7e-09", "unit": "M"}]}
{"smiles": "Cc1c(-c2c(-c3ccco3)sc3ncnc(OC(Cc4ccccc4OCc4ccnn4C4CCCC4)C(=O)O)c23)ccc(OCCN2CCN(C)CC2)c1Cl", "note": "[Example 262, (2R)-2-{[(5Sa)-5-{3-chloro-2-methyl-4-[2-(4-methylpiperazin-1-yl)ethoxy]phenyl}-6-(furan-2-yl)thieno[2,3-d]pyrimidin-4-yl]oxy}-3-{2-[(1-cyclopentyl-1H-pyrazol-5-yl)methoxy]phenyl}propanoic acid]", "values": [{"measurement": "IC50", "setting": "[1]", "result": 0.023, "unit": "µM"}, {"measurement": "IC50", "setting": "Mcl-1 protein", "result": "3.9e-09", "unit": "M"}]}
{"smiles": "Cc1c(-c2c(-c3ccco3)sc3ncnc(OC(Cc4ccccc4OCc4ccnn4-c4ccccc4)C(=O)O)c23)ccc(OCCN2CCN(C)CC2)c1Cl", "note": "[Example 263, (2R)-2-{[(5Sa)-5-{3-chloro-2-methyl-4-[2-(4-methylpiperazin-1-yl)ethoxy]phenyl}-6-(furan-2-yl)thieno[2,3-d]pyrimidin-4-yl]oxy}-3-{2-[(1-phenyl-1H-pyrazol-5-yl)methoxy]phenyl}propanoic acid]", "values": [{"measurement": "IC50", "setting": "[1]", "result": 0.126, "unit": "µM"}, {"measurement": "IC50", "setting": "Mcl-1 protein", "result": "2e-09", "unit": "M"}]}
{"smiles": "CCn1nccc1COc1ccccc1CC(Oc1ncnc2sc(-c3ccco3)c(-c3ccc(OCCN4CCN(C)CC4)c(Cl)c3C)c12)C(=O)O", "note": "[Example 264, (2R)-2-{[(5Sa)-5-{3-chloro-2-methyl-4-[2-(4-methylpiperazin-1-yl)ethoxy]phenyl}-6-(furan-2-yl)thieno[2,3-d]pyrimidin-4-yl]oxy}-3-{2-[(1-ethyl-1H-pyrazol-5-yl)methoxy]phenyl}propanoic acid]", "values": [{"measurement": "IC50", "setting": "[1]", "result": 0.034, "unit": "µM"}, {"measurement": "IC50", "setting": "Mcl-1 protein", "result": "9.1e-09", "unit": "M"}]}
{"smiles": "Cc1c(-c2c(-c3ccco3)sc3ncnc(OC(Cc4ccccc4OCC4CCO4)C(=O)O)c23)ccc(OCCN2CCN(C)CC2)c1Cl", "note": "[Example 266, (2R)-2-{[(5Sa)-5-{3-chloro-2-methyl-4-[2-(4-methylpiperazin-1-yl)ethoxy]phenyl}-6-(furan-2-yl)thieno[2,3-d]pyrimidin-4-yl]oxy}-3-[2-(oxetan-2-ylmethoxy)phenyl]propanoic acid]", "values": [{"measurement": "IC50", "setting": "[1]", "result": 0.093, "unit": "µM"}, {"measurement": "IC50", "setting": "Mcl-1 protein", "result": "5.7e-09", "unit": "M"}]}
{"smiles": "Cc1c(-c2c(-c3ccco3)sc3ncnc(OC(Cc4ccccc4OCc4cn(C)cn4)C(=O)O)c23)ccc(OCCN2CCN(C)CC2)c1Cl", "note": "[Example 267, (2R)-2-{[(5Sa)-5-{3-chloro-2-methyl-4-[2-(4-methylpiperazin-1-yl)ethoxy]phenyl}-6-(furan-2-yl)thieno[2,3-d]pyrimidin-4-yl]oxy}-3-{2-[(1-methyl-1H-imidazol-4-yl)methoxy]phenyl}propanoic acid]", "values": [{"measurement": "IC50", "setting": "[1]", "result": 1.6, "unit": "µM"}, {"measurement": "IC50", "setting": "Mcl-1 protein", "result": "8.8e-09", "unit": "M"}]}
{"smiles": "Cc1cnc(COc2ccccc2CC(Oc2ncnc3sc(-c4ccco4)c(-c4ccc(OCCN5CCN(C)CC5)c(Cl)c4C)c23)C(=O)O)cn1", "note": "[Example 268, (2R)-2-{[(5Sa)-5-{3-chloro-2-methyl-4-[2-(4-methylpiperazin-1-yl)ethoxy]phenyl}-6-(furan-2-yl)thieno[2,3-d]pyrimidin-4-yl]oxy}-3-{2-[(5-methylpyrazin-2-yl)methoxy]phenyl}propanoic acid]", "values": [{"measurement": "IC50", "setting": "[1]", "result": 0.086, "unit": "µM"}, {"measurement": "IC50", "setting": "Mcl-1 protein", "result": "8.2e-09", "unit": "M"}]}
{"smiles": "Cc1c(-c2c(-c3ccco3)sc3ncnc(OC(Cc4ccccc4OCc4cnc(Cl)cn4)C(=O)O)c23)ccc(OCCN2CCN(C)CC2)c1Cl", "note": "[Example 269, (2R)-2-{[(5Sa)-5-{3-chloro-2-methyl-4-[2-(4-methylpiperazin-1-yl)ethoxy]phenyl}-6-(furan-2-yl)thieno[2,3-d]pyrimidin-4-yl]oxy}-3-{2-[(5-chloropyrazin-2-yl)methoxy]phenyl}propanoic acid]", "values": [{"measurement": "IC50", "setting": "[1]", "result": 0.069, "unit": "µM"}, {"measurement": "IC50", "setting": "Mcl-1 protein", "result": "1.1e-08", "unit": "M"}]}
{"smiles": "COc1cnc(COc2ccccc2CC(Oc2ncnc3sc(-c4ccco4)c(-c4ccc(OCCN5CCN(C)CC5)c(Cl)c4C)c23)C(=O)O)cn1", "note": "[Example 270, (2R)-2-{[(5Sa)-5-{3-chloro-2-methyl-4-[2-(4-methylpiperazin-1-yl)ethoxy]phenyl}-6-(furan-2-yl)thieno[2,3-d]pyrimidin-4-yl]oxy}-3-{2-[(5-methoxypyrazin-2-yl)methoxy]phenyl}propanoic acid]", "values": [{"measurement": "IC50", "setting": "[1]", "result": 0.068, "unit": "µM"}, {"measurement": "IC50", "setting": "Mcl-1 protein", "result": "1.2e-08", "unit": "M"}]}
{"smiles": "Cc1ncc(COc2ccccc2CC(Oc2ncnc3sc(-c4ccco4)c(-c4ccc(OCCN5CCN(C)CC5)c(Cl)c4C)c23)C(=O)O)cn1", "note": "[Example 271, (2R)-2-{[(5Sa)-5-{3-chloro-2-methyl-4-[2-(4-methylpiperazin-1-yl)ethoxy]phenyl}-6-(furan-2-yl)thieno[2,3-d]pyrimidin-4-yl]oxy}-3-{2-[(2-methylpyrimidin-5-yl)methoxy]phenyl}propanoic acid]", "values": [{"measurement": "IC50", "setting": "[1]", "result": 0.197, "unit": "µM"}, {"measurement": "IC50", "setting": "Mcl-1 protein", "result": "1.6e-08", "unit": "M"}]}
{"smiles": "Cc1c(-c2c(-c3ccco3)sc3ncnc(OC(Cc4ccccc4OCc4cnc(N5CCCC5)nc4)C(=O)O)c23)ccc(OCCN2CCN(C)CC2)c1Cl", "note": "[Example 272, (2R)-2-{[(5Sa)-5-{3-chloro-2-methyl-4-[2-(4-methylpiperazin-1-yl)ethoxy]phenyl}-6-(furan-2-yl)thieno[2,3-d]pyrimidin-4-yl]oxy}-3-(2-{[2-(pyrrolidin-1-yl)pyrimidin-5-yl]methoxy}phenyl)propanoic acid]", "values": [{"measurement": "IC50", "setting": "[1]", "result": 0.822, "unit": "µM"}, {"measurement": "IC50", "setting": "Mcl-1 protein", "result": "2.2e-08", "unit": "M"}]}
{"smiles": "Cc1c(-c2c(-c3ccco3)sc3ncnc(OC(Cc4ccccc4OCc4cnc(N5CCOCC5)nc4)C(=O)O)c23)ccc(OCCN2CCN(C)CC2)c1Cl", "note": "[Example 273, (2R)-2-{[(5Sa)-5-{3-chloro-2-methyl-4-[2-(4-methylpiperazin-1-yl)ethoxy]phenyl}-6-(furan-2-yl)thieno[2,3-d]pyrimidin-4-yl]oxy}-3-(2-{[2-(morpholin-4-yl)pyrimidin-5-yl]methoxy}phenyl)propanoic acid]", "values": [{"measurement": "IC50", "setting": "[1]", "result": 0.905, "unit": "µM"}, {"measurement": "IC50", "setting": "Mcl-1 protein", "result": "9.2e-09", "unit": "M"}]}
{"smiles": "COc1ncc(COc2ccccc2CC(Oc2ncnc3sc(-c4ccco4)c(-c4ccc(OCCN5CCN(C)CC5)c(Cl)c4C)c23)C(=O)O)cn1", "note": "[Example 274, (2R)-2-{[(5Sa)-5-{3-chloro-2-methyl-4-[2-(4-methylpiperazin-1-yl)ethoxy]phenyl}-6-(furan-2-yl)thieno[2,3-d]pyrimidin-4-yl]oxy}-3-{2-[(2-methoxypyrimidin-5-yl)methoxy]phenyl}propanoic acid]", "values": [{"measurement": "IC50", "setting": "[1]", "result": 0.131, "unit": "µM"}, {"measurement": "IC50", "setting": "Mcl-1 protein", "result": "7.7e-09", "unit": "M"}]}
{"smiles": "Cc1c(-c2c(-c3ccco3)sc3ncnc(OC(Cc4ccccc4OCc4cnccn4)C(=O)O)c23)ccc(OCCN2CCN(C)CC2)c1Cl", "note": "[Example 275, (2R)-2-{[(5Sa)-5-{3-chloro-2-methyl-4-[2-(4-methylpiperazin-1-yl)ethoxy]phenyl}-6-(furan-2-yl)thieno[2,3-d]pyrimidin-4-yl]oxy}-3-[2-(pyrazin-2-ylmethoxy)phenyl]propanoic acid]", "values": [{"measurement": "IC50", "setting": "[1]", "result": 0.051, "unit": "µM"}, {"measurement": "IC50", "setting": "Mcl-1 protein", "result": "4.5e-09", "unit": "M"}]}
{"smiles": "Cc1c(-c2c(-c3ccco3)sc3ncnc(OC(Cc4ccccc4OCc4cncnc4)C(=O)O)c23)ccc(OCCN2CCN(C)CC2)c1Cl", "note": "[Example 277, (2R)-2-{[(5Sa)-5-{3-chloro-2-methyl-4-[2-(4-methylpiperazin-1-yl)ethoxy]phenyl}-6-(furan-2-yl)thieno[2,3-d]pyrimidin-4-yl]oxy}-3-[2-(pyrimidin-5-ylmethoxy)phenyl]propanoic acid]", "values": [{"measurement": "IC50", "setting": "[1]", "result": 0.07, "unit": "µM"}, {"measurement": "IC50", "setting": "Mcl-1 protein", "result": "4.8e-09", "unit": "M"}]}
{"smiles": "Cc1c(-c2c(-c3ccco3)sc3ncnc(OC(Cc4ccccc4OCc4cncs4)C(=O)O)c23)ccc(OCCN2CCN(C)CC2)c1Cl", "note": "[Example 278, (2R)-2-{[(5Sa)-5-{3-chloro-2-methyl-4-[2-(4-methylpiperazin-1-yl)ethoxy]phenyl}-6-(furan-2-yl)thieno[2,3-d]pyrimidin-4-yl]oxy}-3-[2-(1,3-thiazol-5-ylmethoxy)phenyl]propanoic acid]", "values": [{"measurement": "IC50", "setting": "[1]", "result": 0.202, "unit": "µM"}, {"measurement": "IC50", "setting": "Mcl-1 protein", "result": "6.7e-09", "unit": "M"}]}
